# Measured values reported in article PMC11206988, “Study on the Effect of Pharmaceutical Excipient PEG400 on the Pharmacokinetics of Baicalin in Cells Based on MRP2, MRP3, and BCRP Efflux Transporters” (Pharmaceutics, 2024).
# Assays:
# [1] = Pharmacokinetic study of baicalin in HepG2 cells (intracellular concentrations by UPLC-MS/MS); format: in vitro ADME, human; settings: human, intracellular; for AUC(0-t) at 100 μM / Cmax at 100 μM / half-life at 100 μM: HepG2 cells
# Procedure: (§1) The samples were quantified by UPLC-MS/MS, which consisted of a Dionex Ultimate 3000 UPLC system (Thermo Fisher Scientific, Waltham, MA, USA) and a triple quadrupole tandem mass spectrometer (Thermo Fisher Scientific, Waltham, MA, USA). The mass spectrometry was performed using an ESI ion source and in positive ion mode. The chromatograms are shown in Figure S1 of the Supplementary Materials. The samples were analyzed by a Waters XBridge BEH C18 column (2.1 × 100 mm). Mobile phase A consists of acetonitrile, while mobile phase B consists of water containing 0.1% formic acid. The elution program was as follows: B was initially 90%, 0 to 9 min B decreased from 90% to 27%, and 9.1 min to 12 min increased from 27% to 90% B. The flow rate of the mobile phase was 0.3 mL/min, the temperature of the automatic injector was 5 °C, and the injection volume was 10 μL. The m/z for BG and B6G was 447 → 271, for baicalein m/z 271 → 123, and for genistein (IS) m/z 271 → 153. Other mass spectrometry parameters included sheath gas (Arb) pressure, 20 psi, and auxiliary gas (Arb) pressure, 2 psi; source voltage, 4.8 KV, and capillary voltage, 2.5 KV; and ion-transfer-tube temperature, 375 °C, and atomization temperature, 275 °C.
# (§2) HepG2 cells were cultured at a density of 1×10^5 cells/mL in 12-well plates for 24 h to facilitate the conduct of cellular pharmacokinetic experiments. The old medium was aspirated and discarded, the wells were rinsed twice with PBS, and 1 mL of 100 μM baicalin and baicalin + PEG400 (0.25%, 0.5%, and 1%) was added into 12-well plates to initiate the timer. The culture was terminated after 0.25 h, 0.5 h, 1 h, 2 h, 4 h, 6 h, 8 h, 10 h, 12 h, and 24 h, respectively. Upon reaching the designated time for administration, the cell culture medium was removed, and the wells were washed with 1 mL of cold PBS solution. Subsequently, 240 μL of ultra-pure water were added to each well, and the sample was stored at −80 °C until analysis. The sample was subjected to sonication in an ice bath for 10 min in order to lyse the cells, thereby enabling the determination of the accumulated drug concentration within the cells. Subsequently, 20 μL of the cell lysate was collected, and the protein concentration was quantified using a BCA kit for normalization.
# (§3) After repeated freeze-thaw lysis, 100 μL of cell samples were taken, and 300 μL of 0.2% formic acid acetonitrile (containing 200 ng/mL genistein) were added to the vortex for 10 min to precipitate proteins and then centrifuged at 14,000 r/min for 10 min. Then the supernatant was blown dry under nitrogen at 40 °C and then reconstituted with 200 μL of methanol and centrifuged at 14,000 rpm for 10 min. The supernatant was subjected to UPLC-MS/MS analysis.
# HepG2 cells = test: as above; format: in vitro ADME, human; settings: HepG2 cells
# Procedure: as §1, §2, §3
# [2] = system: MDCK II-WT, MDCK II-MRP2, MDCK II-BCRP and MDCK II-MRP3 cells; test: MTT cell proliferation assay; format: cell-based; settings: experimentally selected concentrations
# Excerpt: The effect of PEG400 on baicalin transport was investigated in MDCKII-WT, MDCKII-MRP2, MDCK II-BCRP, and MDCK II-MRP3 cell monolayer models. First, an MTT cell proliferation assay was used to evaluate the effects of baicalin as well as PEG400 concentration on […]. […] The results of the transporter experiments are shown in Figure 5 and Table 2, which indicate that the exocytosis ratio of MDCKII-WT cells in the control group for the transport of the substrate baicalin was 2.58 ± 0.27. This implies that the transport of baicalin through the cell membrane is mediated by a transporter. For the MDCK-WT cell model, the exocytosis ratios of baicalin decreased to 1.94 ± 0.27, 1.53 ± 0.14, and 1.19 ± 0.12, respectively, in response to low, medium, and high concentrations of PEG400. […] Consistent results were obtained in the MDCK II-MRP2 and MDCK II-BCRP cell models, where the percentage of baicalin efflux was reduced, from 2.45 ± 0.04 and 3.01 ± 0.05 to 2.22 ± 0.17, 1.08 ± 0.09, and 0.8 ± 0.04, respectively, and 1.59 ± 0.06, 1.02 ± 0.04, and 0.8 ± 0.02 in a concentration-dependent decrease. The results of the efflux ratio of baicalin in MDCK-WT, MDCK-MRP2, and MDCK-BCRP cell monolayers by 0.25%, 0.5%, and 1% PEG400 are shown in Figure 5f.
# Figure 4 The effect diagram of cell vitality. (a,b) The effects of different concentrations of baicalin and PEG400 on the survival of MDCK II-WT cells. […]
# [3] = HepG2 cells given 100 μM baicalin + H PEG400 (1%)
# [4] = HepG2 cells given 100 μM baicalin + L PEG400 (0.25%)
# [5] = HepG2 cells given 100 μM baicalin + M PEG400 (0.5%)
# [6] = HepG2 cells given 100 μM baicalin alone (group BG, control)
smiles,measurement,setting,value
"O=C(O)[C@H]1O[C@@H](Oc2cc3oc(-c4ccccc4)cc(=O)c3c(O)c2O)[C@H](O)[C@@H](O)[C@@H]1O [BG, Baicalein-7-O-β-D-glucuronide]",AUC(0-t) at 100 μM,[1]; [3],130 ± 5.26 µg·h/mL
same,Cmax at 100 μM,[1]; [3],10800 ± 350 ng/mL
same,half-life at 100 μM,[1]; [3],5.43 ± 0.91 h
same,AUC(0-t) at 100 μM,[1]; [4],107 ± 2.22 µg·h/mL
same,Cmax at 100 μM,[1]; [4],10200 ± 1480 ng/mL
same,half-life at 100 μM,[1]; [4],9.91 ± 3.76 h
same,AUC(0-t) at 100 μM,[1]; [5],112 ± 3.99 µg·h/mL
same,Cmax at 100 μM,[1]; [5],11200 ± 1500 ng/mL
same,half-life at 100 μM,[1]; [5],6.02 ± 4.23 h
same,Cmax at 100 μM,[1]; [6],7840 ± 110 ng/mL
same,half-life at 100 μM,[1]; [6],6.77 ± 5.92 h
same,AUC(0-t) at 100 μM,"[1]; HepG2 cells given 100 μM baicalin alone (group BG, control), 0.25-24 h",76 ± 2.57 µg·h/mL
same,Tmax at 100 μM,[1]; [6],6 h
same,AUC0–t increase compared with the control group,HepG2 cells; baicalin + high PEG400 (1%) vs baicalin alone,1.72 fold
same,AUC0–t increase compared with the control group,HepG2 cells; baicalin + low PEG400 (0.25%) vs baicalin alone,1.41 fold
same,AUC0–t increase compared with the control group,HepG2 cells; baicalin + medium PEG400 (0.5%) vs baicalin alone,1.48 fold
same,effect on cell proliferation (MTT),[2],no significant effect on the proliferation
